Measurements reported in patent US20240197712A1, “TGF-BETA INHIBITION FOR IMMUNODEFICIENCY VIRUS REACTIVATION FROM LATENCY, ENHANCEMENT OF IMMUNODEFICIENCY VIRUS-SPECIFIC RESPONSES AND IMMUNODEFICIENCY VIRUS CURE” (Northwestern University, priority 2022, published 2024).

Experiments:
[1] = test system: PBMC from aviremic, ART-treated PLWH; assay: Modified quantitative viral outgrowth assay (qVOA) with LRA; format: cell-based, human
Excerpt: Considering that TGF-β is present in FBS, used to supplement PBMC and T cell cultures, and that PBMC from people living with HIV-1 release TGF-β in culture supernatants (56-58), we hypothesized that blocking TGF-β while reversing HIV-1 latency ex vivo from PBMC of ART-treated, aviremic individuals may lead to higher frequency of HIV-1 reactivation than in untreated cultures. To test this hypothesis, we used a modified version of the classical quantitative viral outgrowth assay (qVOA) (59). We used whole PBMC to assess potential latency reactivation from any HIV-1-infected circulating cell and not only from resting CD4+ T cells (FIG. 6A). PBMC from two different sets of aviremic, ART-treated donors (Table 1) were activated with PMA (at 100 ng/ml or 10 ng/ml) and with Vorinostat (SAHA, at 1 μM) in presence of T20 and galunisertib (1 μM) or mock solution. […] Infectious unit per million cells (IUPM) were calculated based on the number of infected wells as determined by p24 ELISA (FIG. 6A). […]
PBMC were thawed and cultured in RPMI 10% FBS at 3×10^6/ml. […] 50 μl of supernatant was collected after 7, 14 and 21 days of co-culture and monitored for p24 presence by p24 ELISA (PerkinElmer). IUPM were calculated based on the number of positive wells using the IUPM calculator provided by Dr. Siliciano (76). […]

[2] = test system: SIVmac239M2; assay: SIV-IPDA intact and total provirus in PBMC; format: in vivo, rhesus macaques
Experimental: To determine the impact of galunsiertib on SIV reservoir, CA-vDNA was measured in PBMC, colorectal biopsies and lymph nodes (LN). […] In the gut and LN (right axillary), decreases range from a Log to ⅓ of a Log (gut: median 0.77; range:0.33-0.94 folds LN: median: 0.93; range:0.33-0.98 folds decrease). In the PBMC the decrease was slightly less pronounced with a median half Log decrease ([…] median: 0.58; range 0.28-0.88 folds decrease). However, the comparison for the PBMCs was between week ˜35 and week ˜45 (end of cycle 3, AC3) instead of the end of all 4 cycles, because a snap frozen pellet was not available at the end of cycle 4 for PBMCs. The SIV reservoir in PBMCs was also monitored by SIV-IPDA comparing before cycle 1 (BC1) to the end of cycle 4 (AC4). […] Intact provirus declined similarly to the CA-vDNA with a median of half Log (median: 0.53; range:0-0.71 folds decrease).
Blood was collected in EDTA tubes and plasma was separated by density gradient centrifugation and used for the determination of plasma VL by SIVgag qRT-PCR at NIRC or at Leidos (Quantitative Molecular Diagnostics Core, AIDS and Cancer Virus Program Frederick National Laboratory). Tissue VL from snap frozen PBMC pellets, colorectal biopsies and LN FNA were performed as described in (77). SIV-TILDA was performed on freshly stored PBMC before cycle 1 and at the end of cycle 4 of galunisertib by Accelevir, Baltimore, MD.

[3] = test system: SIV-env; assay: Anti-envelope antibody titers (ELISA); format: in vivo, rhesus macaques; conditions: in 3 of the 7 macaques
Experimental: 96-well plates were coated with the SIV gp130 Recombinant protein 595 (AIDS reagents program, Division of AIDS, NIAID, NIH at 1 μg/ml in coating carbonate buffer 2 hours at room temperature (RT). After washing the plates 4 times with washing buffer, the plates were incubated in blocking buffer (2% BSA in PBS) overnight. Plates were washed and dilutions of test sera or control sera were added to the plate starting at 1:50. Sera were incubated at 37° C. for 30′ and plate washed and detected with anti-Rhesus IgG HRP (NHPRR) 30′ at 37° C. After washing and substrate incubation at RT for 30′ plates were read at 450/650 nm.

Cc1cccc(-c2nn3c(c2-c2ccnc4ccc(C(N)=O)cc24)CCC3)n1 [galunisertib, Galunisertib]
frequency of latency reactivation events (IUPM) ([1]; galunisertib 1 μM vs mock, PMA 100 or 10 ng/ml or Vorinostat 1 μM): significantly higher frequency
vRNA in supernatant after PMA stimulation ([1]; galunisertib-treated PBMC vs mock treated): higher levels of vRNA
decrease of intact pro-virus in PBMC ([2]; BC1 (week 35 pi) to AC4 (week 49 pi), median): 3 fold
intact provirus decline by SIV-IPDA, median ([2]; PBMC, BC1 vs AC4): 0.53 folds
intact provirus decline by SIV-IPDA, range ([2]; PBMC, BC1 vs AC4): 0-0.71 folds
total and intact provirus by SIV-IPDA ([2]; PBMC, BC1 vs AC4): significant decreases
increase in the titer of SIV-env specific antibodies [3]: 0.5 to 1 Log
